Experimental data published in patent publication USRE35053E, “Amines useful in producing pharmaceutically active CNS compounds” (The Upjohn Company, priority 1992, dated 1995).
Where a name gives a salt, the structure may show the parent alone.

Tests used:
[1] = system: serum and arterial cholesterol; assay: Antiatherosclerosis screen in Susceptible to Experimental Atherosclerosis (SEA) Japanese Quail; type: in vivo; conditions: SEA Japanese quail fed atherogenic diet; active = decrease >30 %
Procedure: While not necessary, some minor modifications for extraction of cholesterol from the artery have been made. These are as follows: frozen arteries are homogenized in hexane/isopropanol (3/2) and the volume adjusted with Triton 100 solution (1.5% in hexane/isopropanol) to 7 ml. After standing 12 hr at 20°-25°, the supernatant, obtained by low speed centrifugation is evaporated until dry and then the residue is suspended in 0.5 ml of 5% Triton 100 in isopropanol. This suspension is incubated for 10 min at 45° to dissolve the material. This solution as well as the diluted serum samples are analyzed for cholesterol by standard clinical chemistry analyzer methods. According to the above procedure compounds which decrease serum or arterial cholesterol >30 % are considered to be "active".
Compounds which reduce serum and arterial cholesterol and are useful in treating atherosclerosis and its complications; for example, reduction of serum cholesterol by drugs reduces the incidence of coronary heart disease JAMA 251, 351 (1984) and JAMA 251, 365 (1984).

[2] = system: AcylCoA:Cholesterol Acyltransferase (ACAT); assay: AcylCoA:Cholesterol Acyltransferase (ACAT) inhibition Assay; type: cell-based; design: key: compounds which inhibit ACAT activity equal to, or greater than, that of chlorpromazine are considered "active"; conditions: active = equal to or greater than chlorpromazine; Fu5AH cells preferred
From the text: ACAT esterifies arterial cholesterol which is a key reaction in the development of atherosclerosis. The procedure of Bell, Can. J. Blochem. 60. […] In the ACAT assay it is preferred to use Fu5AH cells, see Lipids 9, 526 (1974). According to this procedure, compounds which inhibit ACAT activity equal to, or greater than, that of chlorpromazine are considered "active".

arachidonic acid = assay: Arachidonic Acid Antagonism Assay (AAAA); type: in vivo, mouse (Charles River male CF-1); conditions: mice
Procedure, shortened: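 Male CF-1 mice ([…]) received compound IV in 1.0% Tween-80/0.1% HCl in water. LD50 was determined by Spearman-Karber (log dose interval 0.05, N-6); an LD50 raised outside the control 95% confidence interval counted as active.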

interleukin-1 = assay: inhibition of interleukin-1 induced T cell proliferation assay; type: cell-based; conditions: interleukin-1; 10^-6 M
From the text: The inhibition of interleukin-1 induced T cell proliferation assay, Proc. Nat. […] Since people with arthritis make excess interleukin 1, compounds which inhibit the activity of interleukin 1 are useful in the treatment of arthritis. According to this procedure compounds which inhibit the activity of interleukin 1 greater that 30% at 10^-6 M are considered to be "active".

mouse head injury = assay: in vivo mouse head injury procedure of Hall, grip test; conditions: statistically significant (p<0.05)
[3] = system: induced mucous secretions; assay: inhibition of mucous secretion assay of Johnson; conditions: inhibit or block enhancement of induced mucous secretions
From the text: The inhibition of mucous secretion assay of Johnson Int. […] According to this procedure compounds which inhibit or block enhancement of induced mucous secretions when tested are considered to be "active".

angiogenesis = assay: fertile egg or chick embryo assay of Folkman (inhibition of angiogenesis / tumor growth); type: in vivo; conditions: chick embryo; 50 μg/10 μl in the presence of heparin
Procedure: According to this procedure compounds which are considered to be "active" (i.e, antiangiogenic) give an avascular zone of 4 mm or greater in some embryos when tested at 50 μg/10 μl in the presence of 50 μg/10 μ of heparin.

aspirin induced ulcer = assay: aspirin/cold induced ulcer assay of Rainsford; type: in vivo; conditions: active = 50% or more reduction of ulcer index
[4] = system: MDA formation in rat brain synaptosomes; assay: Malonyldialdehyde (MDA) Formation Assay (lipid peroxidation); type: biochemical; conditions: active = 50% inhibition or more at 200 μM or less
From the text: The MDA assays of Buege and Aust, Methods in Enzymology, Fleisher and Packer Editors. Academic Press, 1978, New York, Vol LII, p 302-310 and Kohn and Liversedge, J. Pharmacol. Exp. Ther. 82. […] Since iipid peroxidation is involved in the pathophysiology of central nervous system trauma, compounds which inhibit MDA formation are useful in treating the conditions listed below.
While not necessary to determine MDA formation, the above assays have been modified as follows: rat brain synaptosomes are prepared as described in the Example about the conjugated diene assay, except that the final wash of the synaptosomes and final suspension are in physiological (normal) saline in which the pH has been adjusted to 7 0. The synaptosomes are incubated for 10 min at 37° in physiological (normal) saline pH 7.0 (total volume=100 ul) containing; 10 ul synaptosomal suspension. 10% DMSO plus or minus drug. 150 uM Fe^+++ and 50 uM Fe^++. The incubation is started by the rapid addition of iron to the otherwise complete reaction. The iron solutions are prepared fresh as ferric chloride and ferrous ammonium sulfate in argon-purged water. Following the 10 min incubation, the reaction is stopped by the addition of 500 ul ice-cold 12% trichloroacetic acid prepared in 0.5 N hydrochloric acid. Water (300 ul) is then added along with 100 ul of freshly prepared thiobarbituric acid (3.3% in 0.5N sodium hydroxide) and 10 ul of 5mM desferrioxamine. The sample is then heated in a boiling water bath for 20 minutes. The samples are cooled and centrifuged for 15 minutes at 1500 xg and the absorbance of the supernatant fraction is read at 532 nm. The % inhibition of MDA formation is calculated by dividing the absorbance of sample containing drug by the absorbance of samples incubated without drug. Reaction blanks are samples incubated in the absence of iron A compound that inhibits MDA formation by 50% or more at a concentration of 200μM or less is considered "active".

SMILES	inhibition of ACAT [2]	% Inhibition at 10^-6 M (interleukin-1) [%]	% Increase in 1 hr Post-Injury Grip Test Scores After 3 mg/kg (mouse head injury) [%]	inhibition of mucous secretion [3]	other results
C[C@]12CCC(=O)C=C1CC[C@@H]1C2=CC[C@@]2(C)[C@H]1CC[C@]2(O)C(=O)CN1CCN(c2ccccn2)CC1.Cl [Example 3, 17α-Hydroxy-21-[4-(2-pyridinyl) 1 piperazinyl]pregna-4,9(11)-diene-3,20dione hydrogen chloride salt]	active				reduction of arterial cholesterol [1]: demonstrates reduction of serum and arterial cholesterol; reduction of serum cholesterol [1]: demonstrates reduction of serum and arterial cholesterol
C[C@]12CCC(=O)C=C1CC[C@@H]1C2=CC[C@@]2(C)[C@H]1CC[C@]2(O)C(=O)CN1CCOCC1 [Example 93, 17α-hydroxy-21-(4-morpholino)-pregna-4,9(11)-diene-3,20-dione(E)-2-butanedioate (1:1) salt]		62	134.5		arachidonic acid antagonism (elevation of LD50 of arachidonic acid) (arachidonic acid; IV, 15 min before sodium arachidonate, outside 95% confidence interval of control LD50): demonstrate arachidonic acid antagonism
CCN(CC)c1cc(N2CCN(CC(=O)[C@@]3(O)CC[C@H]4[C@@H]5CCC6=CC(=O)CC[C@]6(C)C5=CC[C@@]43C)CC2)nc(N(CC)CC)n1 [Example 16, 17α-Hydroxy-21-[4-[2,6-bis(diethylamino)pyrimidinyl]-1-piperazinyl]pregna4,9(11)-diene-3,20-dione dihydro-chloridehydrate]		84		demonstrate such activity	% of Embryos with 4 mm or Greater A vascular Zone (angiogenesis): 91%; anti-ulcer activity (aspirin induced ulcer): demonstrates anti-ulcer activity
CCN(CC)c1cc(N2CCN(CC(=O)[C@@]3(O)[C@H](C)C[C@H]4[C@@H]5CCC6=CC(=O)C=C[C@]6(C)C5=CC[C@@]43C)CC2)nc(N(CC)CC)n1.Cl.O [Example 18, 21-[4-[2,6-Bis(diethylamino)-4-pyrimidinyl]-1-piperazinyl]-17α-hydroxy-16α-methylpregna-1,4,9(11)-triene-3,20-dione hydrochloride hydrate]	active			demonstrate such activity	
CCN(CC)c1nc(N2CCCCC2)cc(N2CCN(CC(=O)[C@@]3(O)CC[C@H]4[C@@H]5CCC6=CC(=O)CC[C@]6(C)C5=CC[C@@]43C)CC2)n1.Cl.O [Example 17, 17α-Hydroxy-21-[4-[2-(diethylamino)-6-(1-piperidinyl)-4-pyrimidinyl]-1-piperazinyl]pregna-4,9(11)-diene-3,20-dione hydrochloride hydrate]	active				% of Control LD50 (arachidonic acid; 100 mg/kg, LD50 of sodium arachidonate): 150%; inhibition of MDA formation [4]: demonstrate such activity
CCNc1cccc(N2CCN(CC(=O)[C@H]3[C@H](C)C[C@H]4[C@@H]5CCC6=CC(=O)C=C[C@]6(C)C5=CC[C@@]43C)CC2)n1 [Example 127, 21-[4-[6-(Ethylamino)-2-pyridinyl]piperazinyl]-16α-methylpregna-1,4,9(11)-triene-3,20-dione hydrochloride]			200.8		
